Assay results as given in PubChem BioAssay (NCI).
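Cells were grown in 96-well plates and exposed to each compound for 48 hours at five concentrations; endpoints were interpolated linearly between bracketing concentrations, or set to the highest concentration if not reached. TGI marks complete inhibition of growth.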

Assays:
Assay in all cases: DTP human tumour cell line panel, 48 h
786-0 renal = tested on: 786-0 renal
DMS 273 small cell lung = tested on: DMS 273 small cell lung
KM20L2 colon = tested on: KM20L2 colon
SN12C renal = tested on: SN12C renal
IGROV1 ovarian = tested on: IGROV1 ovarian
CCRF-CEM leukemia = tested on: CCRF-CEM leukemia
HT29 colon = tested on: HT29 colon
EKVX NSCLC = tested on: EKVX NSCLC
LOX IMVI melanoma = tested on: LOX IMVI melanoma
SNB-19 CNS = tested on: SNB-19 CNS
SK-OV-3 ovarian = tested on: SK-OV-3 ovarian
TK-10 renal = tested on: TK-10 renal
UACC-62 melanoma = tested on: UACC-62 melanoma
XF 498 CNS = tested on: XF 498 CNS
M19-MEL melanoma = tested on: M19-MEL melanoma
OVCAR-5 ovarian = tested on: OVCAR-5 ovarian
A549 NSCLC = tested on: A549 NSCLC
DMS 114 small cell lung = tested on: DMS 114 small cell lung
KM12 colon = tested on: KM12 colon
NCI-H226 lung = tested on: NCI-H226 lung
HCT-116 colon = tested on: HCT-116 colon
K-562 leukemia = tested on: K-562 leukemia
HCT-15 colon = tested on: HCT-15 colon
NCI-H522 lung = tested on: NCI-H522 lung
U251 CNS = tested on: U251 CNS
OVCAR-4 ovarian = tested on: OVCAR-4 ovarian
SF-295 CNS = tested on: SF-295 CNS
HOP-62 NSCLC = tested on: HOP-62 NSCLC
SNB-78 CNS = tested on: SNB-78 CNS
DLD-1 colon = tested on: DLD-1 colon
SK-MEL-2 melanoma = tested on: SK-MEL-2 melanoma
LXFL 529 NSCLC = tested on: LXFL 529 NSCLC
NCI-H23 lung = tested on: NCI-H23 lung
A498 renal = tested on: A498 renal
MOLT-4 leukemia = tested on: MOLT-4 leukemia
HOP-18 NSCLC = tested on: HOP-18 NSCLC
RXF 393 renal = tested on: RXF 393 renal
UACC-257 melanoma = tested on: UACC-257 melanoma
SNB-75 CNS = tested on: SNB-75 CNS
NCI-H460 lung = tested on: NCI-H460 lung
SF-268 CNS = tested on: SF-268 CNS
SK-MEL-5 melanoma = tested on: SK-MEL-5 melanoma
RXF-631 renal = tested on: RXF-631 renal
OVCAR-3 ovarian = tested on: OVCAR-3 ovarian
RPMI-8226 leukemia = tested on: RPMI-8226 leukemia
MALME-3M melanoma = tested on: MALME-3M melanoma
SF-539 CNS = tested on: SF-539 CNS
HL-60(TB) leukemia = tested on: HL-60(TB) leukemia
UO-31 renal = tested on: UO-31 renal
M14 melanoma = tested on: M14 melanoma
CAKI-1 renal = tested on: CAKI-1 renal
OVCAR-8 ovarian = tested on: OVCAR-8 ovarian
COLO 205 colon = tested on: COLO 205 colon
SR leukemia = tested on: SR leukemia
HOP-92 NSCLC = tested on: HOP-92 NSCLC
SW-620 colon = tested on: SW-620 colon
ACHN renal = tested on: ACHN renal
SK-MEL-28 melanoma = tested on: SK-MEL-28 melanoma
HCC-2998 colon = tested on: HCC-2998 colon

CC(C)=CCCC(C)[C@H]1CC(O)C2(C)C3=CCC4C(C)(C)[C@@H](O)CC[C@]4(C)C3=CC[C@]12C (stereo not given in full)
TGI (786-0 renal): 3.52 µM | TGI (DMS 273 small cell lung): 3.74 µM | TGI (KM20L2 colon): 93.6 µM | TGI (SN12C renal): 12.3 µM | TGI (IGROV1 ovarian): 48.7 µM | TGI (CCRF-CEM leukemia): 25.8 µM | TGI (HT29 colon): 14.6 µM | TGI (EKVX NSCLC): > 100 µM | TGI (LOX IMVI melanoma): 1.07 µM | TGI (SNB-19 CNS): 30.2 µM | TGI (SK-OV-3 ovarian): 24.8 µM | TGI (TK-10 renal): 50.1 µM | TGI (UACC-62 melanoma): 15.1 µM | TGI (XF 498 CNS): 25.1 µM | TGI (M19-MEL melanoma): 13.8 µM | TGI (OVCAR-5 ovarian): > 100 µM | TGI (A549 NSCLC): 10.6 µM | TGI (DMS 114 small cell lung): 33.5 µM | TGI (KM12 colon): > 100 µM | TGI (NCI-H226 lung): 15.1 µM | TGI (HCT-116 colon): 6.22 µM | TGI (K-562 leukemia): 26.6 µM | TGI (HCT-15 colon): 45.7 µM | TGI (NCI-H522 lung): 16.2 µM | TGI (U251 CNS): 6.54 µM | TGI (OVCAR-4 ovarian): 6.48 µM | TGI (SF-295 CNS): 5.91 µM | TGI (HOP-62 NSCLC): 18.9 µM | TGI (SNB-78 CNS): 32.4 µM | TGI (DLD-1 colon): 27.1 µM | TGI (SK-MEL-2 melanoma): 79.5 µM | TGI (LXFL 529 NSCLC): 5.09 µM | TGI (NCI-H23 lung): 14.9 µM | TGI (A498 renal): 16.3 µM | TGI (MOLT-4 leukemia): 42.4 µM | TGI (HOP-18 NSCLC): 31.6 µM | TGI (RXF 393 renal): 7.59 µM | TGI (UACC-257 melanoma): > 100 µM | TGI (SNB-75 CNS): 21.3 µM | TGI (NCI-H460 lung): 4.92 µM | TGI (SF-268 CNS): 28.3 µM | TGI (SK-MEL-5 melanoma): > 100 µM | TGI (RXF-631 renal): 34 µM | TGI (OVCAR-3 ovarian): 13.1 µM | TGI (RPMI-8226 leukemia): 34.4 µM | TGI (MALME-3M melanoma): 34.2 µM | TGI (SF-539 CNS): 6.58 µM | TGI (HL-60(TB) leukemia): 35 µM | TGI (UO-31 renal): 41.6 µM | TGI (M14 melanoma): 18.5 µM | TGI (CAKI-1 renal): 24.4 µM | TGI (OVCAR-8 ovarian): 3.79 µM | TGI (COLO 205 colon): 20.7 µM | TGI (SR leukemia): 44.2 µM | TGI (HOP-92 NSCLC): 9.53 µM | TGI (SW-620 colon): 14.7 µM

CCOC(=O)C1C(c2ccccc2)=C(c2ccccc2)C(c2ccccc2)=C1c1ccccc1
TGI (ACHN renal): > 82.2 µM | TGI (786-0 renal): 55.8 µM | TGI (DMS 273 small cell lung): > 100 µM | TGI (KM20L2 colon): > 100 µM | TGI (SN12C renal): > 83.6 µM | TGI (IGROV1 ovarian): > 70.2 µM | TGI (CCRF-CEM leukemia): > 100 µM | TGI (HT29 colon): > 100 µM | TGI (EKVX NSCLC): > 100 µM | TGI (LOX IMVI melanoma): > 100 µM | TGI (SNB-19 CNS): 40.3 µM | TGI (SK-MEL-28 melanoma): > 100 µM | TGI (SK-OV-3 ovarian): 49 µM | TGI (TK-10 renal): 57.4 µM | TGI (UACC-62 melanoma): 60.9 µM | TGI (XF 498 CNS): > 56.8 µM | TGI (M19-MEL melanoma): > 100 µM | TGI (OVCAR-5 ovarian): > 100 µM | TGI (A549 NSCLC): 97.4 µM | TGI (DMS 114 small cell lung): > 100 µM | TGI (KM12 colon): > 100 µM | TGI (NCI-H226 lung): > 60.1 µM | TGI (HCT-116 colon): > 76.6 µM | TGI (K-562 leukemia): > 100 µM | TGI (HCC-2998 colon): > 100 µM | TGI (HCT-15 colon): > 100 µM | TGI (NCI-H522 lung): 98.1 µM | TGI (U251 CNS): 55.7 µM | TGI (OVCAR-4 ovarian): > 100 µM | TGI (SF-295 CNS): 69.8 µM | TGI (HOP-62 NSCLC): 33.3 µM | TGI (SNB-78 CNS): > 91.6 µM | TGI (DLD-1 colon): > 100 µM | TGI (SK-MEL-2 melanoma): > 82.3 µM | TGI (LXFL 529 NSCLC): > 100 µM | TGI (NCI-H23 lung): > 100 µM | TGI (A498 renal): 57.1 µM | TGI (MOLT-4 leukemia): > 100 µM | TGI (HOP-18 NSCLC): 82.4 µM | TGI (RXF 393 renal): 40.4 µM | TGI (UACC-257 melanoma): > 100 µM | TGI (SNB-75 CNS): 32.1 µM | TGI (NCI-H460 lung): > 100 µM | TGI (SF-268 CNS): > 100 µM | TGI (SK-MEL-5 melanoma): > 100 µM | TGI (RXF-631 renal): > 100 µM | TGI (OVCAR-3 ovarian): 68.7 µM | TGI (RPMI-8226 leukemia): > 100 µM | TGI (MALME-3M melanoma): > 91.7 µM | TGI (SF-539 CNS): 91 µM | TGI (HL-60(TB) leukemia): > 100 µM | TGI (UO-31 renal): > 93.7 µM | TGI (M14 melanoma): > 100 µM | TGI (CAKI-1 renal): > 100 µM | TGI (OVCAR-8 ovarian): > 72.7 µM | TGI (COLO 205 colon): > 100 µM | TGI (SR leukemia): > 100 µM | TGI (HOP-92 NSCLC): 50.7 µM | TGI (SW-620 colon): > 100 µM

COc1ccc(C(c2ccc(C(C)C)cc(OC)c2=O)c2ccc(C(C)C)cc(OC)c2=O)cc1
TGI (786-0 renal): 30.5 µM | TGI (DMS 273 small cell lung): 28 µM | TGI (KM20L2 colon): 27 µM | TGI (SN12C renal): 30.3 µM | TGI (CCRF-CEM leukemia): 38.5 µM | TGI (HT29 colon): 22.7 µM | TGI (EKVX NSCLC): 26.6 µM | TGI (LOX IMVI melanoma): 31 µM | TGI (SNB-19 CNS): 29.3 µM | TGI (SK-OV-3 ovarian): 32.3 µM | TGI (TK-10 renal): 34.2 µM | TGI (UACC-62 melanoma): 28.1 µM | TGI (XF 498 CNS): 34.7 µM | TGI (M19-MEL melanoma): 27.1 µM | TGI (OVCAR-5 ovarian): 34.3 µM | TGI (A549 NSCLC): 24.6 µM | TGI (DMS 114 small cell lung): 24.7 µM | TGI (KM12 colon): 26.4 µM | TGI (NCI-H226 lung): 32.3 µM | TGI (HCT-116 colon): 23.1 µM | TGI (K-562 leukemia): 35.9 µM | TGI (HCT-15 colon): 25.3 µM | TGI (NCI-H522 lung): 27.8 µM | TGI (U251 CNS): 26.6 µM | TGI (OVCAR-4 ovarian): 24.9 µM | TGI (SF-295 CNS): 29.7 µM | TGI (HOP-62 NSCLC): 35.5 µM | TGI (SNB-78 CNS): 27.3 µM | TGI (DLD-1 colon): 19.6 µM | TGI (SK-MEL-2 melanoma): 29.3 µM | TGI (LXFL 529 NSCLC): 28.1 µM | TGI (NCI-H23 lung): 30.8 µM | TGI (A498 renal): 31.7 µM | TGI (MOLT-4 leukemia): 31.3 µM | TGI (HOP-18 NSCLC): 40.1 µM | TGI (RXF 393 renal): 15 µM | TGI (UACC-257 melanoma): 29 µM | TGI (SNB-75 CNS): 34 µM | TGI (NCI-H460 lung): 30 µM | TGI (SF-268 CNS): 26.5 µM | TGI (SK-MEL-5 melanoma): 27.4 µM | TGI (RXF-631 renal): 34.8 µM | TGI (OVCAR-3 ovarian): 26 µM | TGI (RPMI-8226 leukemia): 25.6 µM | TGI (MALME-3M melanoma): 30.6 µM | TGI (SF-539 CNS): 30.9 µM | TGI (HL-60(TB) leukemia): 41.9 µM | TGI (UO-31 renal): 27.3 µM | TGI (M14 melanoma): 28 µM | TGI (CAKI-1 renal): 33.3 µM | TGI (OVCAR-8 ovarian): 32.5 µM | TGI (COLO 205 colon): 31.1 µM | TGI (SR leukemia): 38.2 µM | TGI (HOP-92 NSCLC): 27.1 µM | TGI (SW-620 colon): 28.8 µM
